{"source": "patent US20260085082A1", "about": "“KDM1A INHIBITORS FOR THE TREATMENT OF DISEASE” (Imago Biosciences, Inc., priority 2022, published 2026)", "key": {"[1]": {"molecular_target": "LSD1 (Homo sapiens, UniProt O60341)", "assay": "LSD1 10-dose IC50 fluorescence coupling enzyme assay (HRP/Amplex Red, resorufin)", "type": "biochemical", "settings": "10 M histone H3(1-21)K4me2 peptide substrate; 3-fold serial dilution in duplicate starting at 100 μM", "method": "Compounds were tested in a 10-dose IC50 mode fluorescence coupling enzyme assay with 3-fold serial dilution in duplicate starting at 100 μM. The production of FAD-dependent H2O2 as a result of demethylase activity of LSD1 on […] histone H3(1-21)K4me2 peptide substrate was measured by coupling with HRP and Amplex Red to yield resorufin (fluorescence measured at Ex/Em=535/590 nm on EnVision, Perkin Elmer)."}, "[2]": {"system": "MV4;11 cells", "assay": "Cell Titer-Glo Luminescent Cell Viability Assay, cell growth inhibition against MV4;11 cells", "type": "cell-based", "settings": "Homo sapiens", "method_in_brief": "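MV4;11 cells seeded at 3750/well, exposed to a 10-point 4-fold dilution series (0–50 μM); on Day 5 cells were split into fresh compound and media and grown to Day 10. Viability by CellTiter-Glo ATP luminescence at Day 5 and Day 10; IC50 from dose curves.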"}, "[3]": {"settings": "MV4-11, MV4;11 cells, Day 10 (re-seeded at Day 5 with fresh compound), 10-point dose curve 0 to 50 μM, read-out: Cell Titer Glo IC50 (10 d)"}, "[4]": {"settings": "MV4-11, 120 h, MV4;11 cells, Day 5, 10-point dose curve 0 to 50 μM, read-out: Cell Titer Glo IC50 (5 d)"}}, "note": "Read-outs that look alike come from different tables or passages of the source.", "data": [{"smiles": "Cn1cc(-c2ccc(-n3nc(C(=O)N4CCC[C@@H](N)C4)cc3-c3ccc(C#N)c(F)c3)cc2)cn1", "note": "[Example 66, (R)-4-(3-(3-aminopiperidine-1-carbonyl)-1-(4-(1-methyl-1H-pyrazol-4-yl)phenyl)-1H-pyrazol-5-yl)-2-fluorobenzonitrile 2,2,2-trifluoroacetate]", "values": [{"measurement": "IC50", "setting": "[1]", "result": "< 500", "unit": "nM"}, {"measurement": "IC50", "setting": "[2]; [3]", "result": "< 500", "unit": "nM"}]}, {"smiles": "CN1CCN(c2ccc(-n3nc(C(=O)N4CCC[C@@H](N)C4)cc3-c3ccc(C#N)c(F)c3)c(F)c2)CC1=O", "note": "[Example 68, (R)-4-(3-(3-aminopiperidine-1-carbonyl)-1-(2-fluoro-4-(4-methyl-3-oxopiperazin-1-yl)phenyl)-1H-pyrazol-5-yl)-2-fluorobenzonitrile]", "values": [{"measurement": "IC50", "setting": "[1]", "result": "< 500", "unit": "nM"}, {"measurement": "IC50", "setting": "[2]; [3]", "result": "< 500", "unit": "nM"}]}, {"smiles": "N#Cc1ccc(-c2cc(C(=O)N3CCC[C@@H](N)C3)nn2-c2ccc(N3CCC(OCCCO)CC3)cc2)cc1F", "note": "[Example 69, (R)-4-(3-(3-Aminopiperidine-1-carbonyl)-1-(4-(4-(3-hydroxypropoxy)piperidin-1-yl)phenyl)-1H-pyrazol-5-yl)-2-fluorobenzonitrile 2,2,2-trifluoroacetate]", "values": [{"measurement": "IC50", "setting": "[1]", "result": "< 500", "unit": "nM"}, {"measurement": "IC50", "setting": "[2]; [3]", "result": "< 500", "unit": "nM"}]}, {"smiles": "COP(=O)(OC)OCCCOC1CCN(c2ccc(-n3nc(C(=O)N4CCC[C@@H](N)C4)cc3-c3ccc(C#N)c(F)c3)cc2)CC1", "note": "[Example 70, (R)-3-((1-(4-(3-(3-aminopiperidine-1-carbonyl)-5-(4-cyano-3-fluorophenyl)-1H-pyrazol-1-yl)phenyl)piperidin-4-yl)oxy)propyl dimethyl phosphate 2,2,2-trifluoroacetate]", "values": [{"measurement": "IC50", "setting": "[1]", "result": "< 500", "unit": "nM"}, {"measurement": "IC50", "setting": "[2]; MV4;11 cells, Day 10 (re-seeded at Day 5 with fresh compound), 10-point dose curve 0 to 50 μM, read-out: Cell Titer Glo IC50 (10 d)", "result": "< 500", "unit": "nM"}]}, {"smiles": "N#Cc1ccc(-c2cc(C(=O)N3CCC[C@@H](N)C3)nn2-c2ccc(N3CCS(=O)(=O)CC3)cc2)cc1F", "note": "[Example 71, (R)-4-(3-(3-aminopiperidine-1-carbonyl)-1-(4-(1,1-dioxidothiomorpholino)phenyl)-1H-pyrazol-5-yl)-2-fluorobenzonitrile 2,2,2-trifluoroacetate]", "values": [{"measurement": "IC50", "setting": "[1]", "result": "< 500", "unit": "nM"}, {"measurement": "IC50", "setting": "[2]; [3]", "result": "< 500", "unit": "nM"}]}, {"smiles": "N#Cc1ccc(-c2cc(C(=O)N3CCC[C@@H](N)C3)nn2-c2ccc(-c3cnc4c(c3)OCCO4)cc2)cc1F", "note": "[Example 84, (R)-4-(3-(3-aminopiperidine-1-carbonyl)-1-(4-(2,3-dihydro-[1,4]dioxino[2,3-b]pyridin-7-yl)phenyl)-1H-pyrazol-5-yl)-2-fluorobenzonitrile 2,2,2-trifluoroacetate]", "values": [{"measurement": "IC50", "setting": "[1]", "result": "< 500", "unit": "nM"}, {"measurement": "IC50", "setting": "[2]; [3]", "result": "< 500", "unit": "nM"}]}, {"smiles": "N#Cc1ccc(-c2cc(C(=O)N3CCC[C@@H](N)C3)nn2-c2ccc(-c3ccc4c(c3)OCCO4)cc2)cc1F", "note": "[Example 85, (R)-4-(3-(3-aminopiperidine-1-carbonyl)-1-(4-(2,3-dihydrobenzo[b][1,4]dioxin-6-yl)phenyl)-1H-pyrazol-5-yl)-2-fluorobenzonitrile 2,2,2-trifluoroacetate]", "values": [{"measurement": "IC50", "setting": "[1]", "result": "< 500", "unit": "nM"}, {"measurement": "IC50", "setting": "[2]; [3]", "result": "< 500", "unit": "nM"}]}, {"smiles": "COc1ccc(-n2cc(C(=O)N3CCC(N)CC3)c(-c3ccc(C#N)cc3)n2)cc1", "note": "[Example 86, 4-(4-(4-aminopiperidine-1-carbonyl)-1-(4-methoxyphenyl)-1H-pyrazol-3-yl)benzonitrile]", "values": [{"measurement": "IC50", "setting": "[1]", "result": "> 10000", "unit": "nM"}, {"measurement": "IC50", "setting": "[2]; [4]", "result": "> 10000", "unit": "nM"}]}, {"smiles": "COc1ccc(-n2cc(C(=O)N3CCCC(N)C3)c(-c3ccc(C#N)cc3)n2)cc1", "note": "(stereo not shown) [Example 87, 4-(4-(3-aminopiperidine-1-carbonyl)-1-(4-methoxyphenyl)-1H-pyrazol-3-yl)benzonitrile]", "values": [{"measurement": "IC50", "setting": "[1]", "result": "> 10000", "unit": "nM"}, {"measurement": "IC50", "setting": "[2]; [4]", "result": "> 10000", "unit": "nM"}]}, {"smiles": "COc1ccc(-n2ncc(C(=O)N3CCCC(N)C3)c2-c2ccc(C#N)cc2)cc1", "note": "(stereo not shown) [Example 88, 4-(4-(3-aminopiperidine-1-carbonyl)-1-(4-methoxyphenyl)-1H-pyrazol-5-yl)benzonitrile]", "values": [{"measurement": "IC50", "setting": "[1]", "result": "> 10000", "unit": "nM"}, {"measurement": "IC50", "setting": "[2]; [4]", "result": "> 10000", "unit": "nM"}]}, {"smiles": "COc1ccc(-n2nc(NC(=O)[C@@H]3CCC[C@@H](N)C3)cc2-c2ccc(C#N)c(F)c2)cc1", "note": "[Example 89, (1R,3R)-3-amino-N-(5-(4-cyano-3-fluorophenyl)-1-(4-methoxyphenyl)-1H-pyrazol-3-yl)cyclohexane-1-carboxamide 2,2,2-trifluoroacetate]", "values": [{"measurement": "IC50", "setting": "[1]", "result": "< 500", "unit": "nM"}, {"measurement": "IC50", "setting": "[2]; [4]", "result": "1000 to 10000", "unit": "nM"}]}, {"smiles": "COc1ccc(-n2nc(NC(=O)[C@H]3CCC[C@H](N)C3)cc2-c2ccc(C#N)c(F)c2)cc1", "note": "[Example 90, (1S,3S)-3-amino-N-(5-(4-cyano-3-fluorophenyl)-1-(4-methoxyphenyl)-1H-pyrazol-3-yl)cyclohexane-1-carboxamide 2,2,2-trifluoroacetate]", "values": [{"measurement": "IC50", "setting": "[1]", "result": "< 500", "unit": "nM"}, {"measurement": "IC50", "setting": "[2]; [4]", "result": "1000 to 10000", "unit": "nM"}]}, {"smiles": "COc1ccc(-n2nc(NC(=O)[C@H]3CC[C@H](N)CC3)cc2-c2ccc(C#N)c(F)c2)cc1", "note": "[Example 91, (1R,4R)-4-Amino-N-(5-(4-cyano-3-fluorophenyl)-1-(4-methoxyphenyl)-1H-pyrazol-3-yl)cyclohexane-1-carboxamide 2,2,2-trifluoroacetate]", "values": [{"measurement": "IC50", "setting": "[1]", "result": "1000 to 10000", "unit": "nM"}, {"measurement": "IC50", "setting": "[2]; [4]", "result": "1000 to 10000", "unit": "nM"}]}, {"smiles": "COc1ccc(-n2nc(NC(=O)C3CCNCC3)cc2-c2ccc(C#N)c(F)c2)cc1", "note": "[Example 92, N-(5-(4-cyano-3-fluorophenyl)-1-(4-methoxyphenyl)-1H-pyrazol-3-yl)piperidine-4-carboxamide 2,2,2-trifluoroacetate]", "values": [{"measurement": "IC50", "setting": "[1]", "result": "500 to 1000", "unit": "nM"}, {"measurement": "IC50", "setting": "[2]; [4]", "result": "1000 to 10000", "unit": "nM"}]}, {"smiles": "COc1ccc(-n2nc(NC(=O)C3CCNC3)cc2-c2ccc(C#N)c(F)c2)cc1", "note": "(stereo not shown) [Example 93, N-(5-(4-cyano-3-fluorophenyl)-1-(4-methoxyphenyl)-1H-pyrazol-3-yl)pyrrolidine-3-carboxamide 2,2,2-trifluoroacetate]", "values": [{"measurement": "IC50", "setting": "[1]", "result": "< 500", "unit": "nM"}, {"measurement": "IC50", "setting": "[2]; [4]", "result": "1000 to 10000", "unit": "nM"}]}, {"smiles": "COc1ccc(-n2nc(NC(=O)[C@@H]3CCNC3)cc2-c2ccc(C#N)c(F)c2)cc1", "note": "[Example 94, (R)-N-(5-(4-cyano-3-fluorophenyl)-1-(4-methoxyphenyl)-1H-pyrazol-3-yl)pyrrolidine-3-carboxamide 2,2,2-trifluoroacetate]", "values": [{"measurement": "IC50", "setting": "[1]", "result": "< 500", "unit": "nM"}, {"measurement": "IC50", "setting": "[2]; [4]", "result": "1000 to 10000", "unit": "nM"}]}, {"smiles": "COc1ccc(-n2nc(NC(=O)[C@H]3CCNC3)cc2-c2ccc(C#N)c(F)c2)cc1", "note": "[Example 95, (S)-N-(5-(4-cyano-3-fluorophenyl)-1-(4-methoxyphenyl)-1H-pyrazol-3-yl)pyrrolidine-3-carboxamide 2,2,2-trifluoroacetate]", "values": [{"measurement": "IC50", "setting": "[1]", "result": "< 500", "unit": "nM"}, {"measurement": "IC50", "setting": "[2]; [4]", "result": "1000 to 10000", "unit": "nM"}]}]}
